# Measured values: patent US11517612B2, “Methods of treating inflammatory skin disorders” (NEPSONE EHF, priority 2016, dated 2022)
# Where no end group is shown, it is not given here.
# Test system: psoriatic lesion(s)
# Assay: Pre-psoriatic rim topical administration and treatment of psoriasis
# Type: in vivo
# Method: In one embodiment, a composition for topical administration was prepared using the peptide CGRP8-37 in a topical formulation at 20 μg/g. The effective range of the peptide in the composition can be between 0.00001 μg/g to […], depending on formulation and measured penetration parameters. The described composition was applied to an area at least partially around the psoriatic lesion(s), termed the pre-psoriatic rim, which was determined using well known laser Doppler flowmetry. […] 10 μg/g of the peptide was applied twice daily for 4 weeks. The composition was purposely not applied directly to the lesion. Without being held to a single theory, a novel local neural transport mechanism appears to be responsible for the effects observed by the pre-psoriatic rim administration resulting in treatment of psoriasis. Topical steroids are usually applied directly on lesions as is the convention for most topical treatments. Topical steroid molecules are much smaller (<500 Da) then CGRP8-37 (3100 Da) and therefore can more easily penetrate thick skin, topical steroids also have a side-effect on normal skin causing skin atrophy in some cases. That is why, for steroids and some other topical remedies e.g. tar (being irritating to normal skin), applying around the lesion is not recommended. […]
substance,measurement,setting,value
"CGRP8-37: CGRP derivative peptide, high affinity CGRP receptor antagonist; sequence SEQ ID NO:1 or SEQ ID NO:2; used in topical formulation (VTHRLAGLLSRSGGVVKNNFVPTNVGSKAF; ends and bridges not checked; UniProt P06881 90-119, looked up, fragment)",improvement at low dosage,"applied around the lesion, doses as low as 1 μg/g of topical formulation",significant improvement
same,"response of psoriatic lesion (plaque on right shoulder, FIGS. 8-10)","topical composition applied to pre-psoriatic rim, not directly to the lesion, 10 μg/g of the peptide twice daily for 4 weeks",clearing completely
